This is an account of results in paper PMC8020931, “Spectroscopic and in silico investigation of the interaction between GH1 β‐glucosidase and ginsenoside Rb1” (Food Science & Nutrition, 2021).

Molecules are shown by their SMILES.

The target of the test is T1, β‐glucosidase (GH1 family, bglB) (Paenibacillus polymyxa, UniProt P22505).
T1 construct: full-length protein encoded by bglB (448 aa, GenBank M60211.1), six His-tags, pET-28a(+), expressed in E. coli BL21(DE3)
Description: LSPR (enzyme immobilised on COOH chip, […] model); supported by fluorescence quenching, UV-Vis and CD. Format: binding.

T1 sequence (P22505 whole entry): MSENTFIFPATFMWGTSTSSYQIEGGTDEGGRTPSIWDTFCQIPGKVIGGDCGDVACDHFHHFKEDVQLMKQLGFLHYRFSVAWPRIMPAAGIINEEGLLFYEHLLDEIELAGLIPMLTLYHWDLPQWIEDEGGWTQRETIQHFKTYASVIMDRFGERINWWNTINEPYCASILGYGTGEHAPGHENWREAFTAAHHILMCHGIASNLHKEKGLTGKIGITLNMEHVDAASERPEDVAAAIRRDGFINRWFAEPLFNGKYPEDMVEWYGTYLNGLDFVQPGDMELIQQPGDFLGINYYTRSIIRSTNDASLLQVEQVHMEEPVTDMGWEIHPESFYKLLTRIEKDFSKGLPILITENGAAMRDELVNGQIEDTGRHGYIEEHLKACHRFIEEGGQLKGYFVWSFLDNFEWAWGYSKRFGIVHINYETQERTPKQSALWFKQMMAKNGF

In general, Kd refers to the constant that tells how readily two partners part at equilibrium. Read a high Kd as lower affinity. For `CC(C)=CCC[C@](C)(O[C@@H]1O[C@H](CO[C@@H]2O[C@H](CO)[C@@H](O)[C@H](O)[C@H]2O)[C@@H](O)[C@H](O)[C@H]1O)[C@H]1CC[C@]2(C)[C@@H]1[C@H](O)C[C@@H]1[C@@]3(C)CC[C@H](O[C@@H]4O[C@H](CO)[C@@H](O)[C@H](O)[C@H]4O[C@@H]4O[C@H](CO)[C@@H](O)[C@H](O)[C@H]4O)C(C)(C)[C@@H]3CC[C@]12C` [ginsenoside Rb1], the Kd is 524 µM.
